The source of these data is patent US20230398130A1, “METHODS AND COMPOSITIONS FOR DIFFERENTIATING STEM CELLS” (Massachusetts Institute of Technology, priority 2020, published 2023).

Experiment [1] relates to ISC-enriched organoids. The experiment is described as follows: Primary screen, 384-well 2.5-D organoid differentiation (ENR+CD, 6 days, Target Selective Inhibitor Library, vs whole-plate median): ATP (CellTiter-Glo 3D, CTG). Particulars: primary screen; for Dose.FC.CTG (log 2 fold change): vs plate median. In general terms: Cellular ATP, detected with luciferase, serves as a proxy for viable cell number.

The subject of experiment [2] is ISC-enriched organoids. The experiment is described as follows: Primary screen, 384-well 2.5-D organoid differentiation (ENR+CD, 6 days): basal lysozyme secretion (LYZ.NS). Particulars: primary screen; for Dose.FC.LYZ.NS (log 2 fold change): vs plate median. It is filed as cell-based, murine. The source says: (§1) High-throughput screening.
Experiment [3] has as its system ISC-enriched organoids. The experiment is described as follows: Primary screen, 384-well 2.5-D organoid differentiation (ENR+CD, 6 days): carbachol-induced lysozyme secretion (LYZ.S). It is filed as cell-based, murine. Particulars: primary screen, vs plate median.
Source text: as §1

`O=C(Nc1ccccc1Br)N[C@@H]1CCN(c2ccc(C(F)(F)F)cn2)C1` [SB705498]: the “Z.CTG (standard z score)” value is on record as 0.318 in the experiment with ISC-enriched organoids [1] (Dose 0.08 uM), −0.102 in the experiment with ISC-enriched organoids [1] (Dose 0.40 uM), −0.009 in the experiment with ISC-enriched organoids [1] (Dose 2.00 uM) and −0.089 in the experiment on ISC-enriched organoids [1] (Dose 10.00 uM). For the same compound, the “Dose.FC.CTG (log 2 fold change)” value was 0.133 in the experiment on ISC-enriched organoids [1] (Dose 0.08 uM), −0.043 in the experiment with ISC-enriched organoids [1] (Dose 0.40 uM), −0.004 with ISC-enriched organoids [1] (Dose 2.00 uM) and −0.037 with ISC-enriched organoids [1] (Dose 10.00 uM). Also, the “Z.LYZ.NS (standard z score)” value is given as 0.642 in the experiment on ISC-enriched organoids [2] (Dose 0.08 uM), −0.433 in the experiment on ISC-enriched organoids [2] (Dose 0.40 uM), −0.008 with ISC-enriched organoids [2] (Dose 2.00 uM) and −0.154 in the experiment with ISC-enriched organoids [2] (Dose 10.00 uM). Besides, the “Dose.FC.LYZ.NS (log 2 fold change)” value with ISC-enriched organoids [2] (Dose 0.08 uM) was 0.074; in the experiment with ISC-enriched organoids [2] (Dose 0.40 uM), −0.050; in the experiment with ISC-enriched organoids [2] (Dose 2.00 uM) it was −0.001; in the experiment with ISC-enriched organoids [2] (Dose 10.00 uM) it was −0.018. Further, the “Dose.FC.LYZ.S (log 2 fold change)” value in the experiment with ISC-enriched organoids [3] (Dose 0.08 uM) is given as 0.094; in the experiment with ISC-enriched organoids [3] (Dose 0.40 uM), 0.023; in the experiment with ISC-enriched organoids [3] (Dose 2.00 uM), −0.030; in the experiment on ISC-enriched organoids [3] (Dose 10.00 uM), −0.023.

`O=S(=O)(c1ccccc1)c1cnc2c(N3CCNCC3)cccc2c1` [SB742457]: the “Z.CTG (standard z score)” value in the experiment with ISC-enriched organoids [1] (Dose 0.08 uM) is −0.693; in the experiment with ISC-enriched organoids [1] (Dose 0.40 uM) it was −0.300; with ISC-enriched organoids [1] (Dose 2.00 uM) it was −0.423; in the experiment on ISC-enriched organoids [1] (Dose 10.00 uM), −0.702. Further, the “Dose.FC.CTG (log 2 fold change)” value in the experiment on ISC-enriched organoids [1] (Dose 0.08 uM) is −0.290; in the experiment on ISC-enriched organoids [1] (Dose 0.40 uM), −0.126; in the experiment on ISC-enriched organoids [1] (Dose 2.00 uM), −0.177; in the experiment with ISC-enriched organoids [1] (Dose 10.00 uM) it was −0.294. Moreover, the “Z.LYZ.NS (standard z score)” value was 0.108 in the experiment on ISC-enriched organoids [2] (Dose 0.08 uM), −0.537 in the experiment on ISC-enriched organoids [2] (Dose 0.40 uM), 0.598 in the experiment on ISC-enriched organoids [2] (Dose 2.00 uM) and 0.115 with ISC-enriched organoids [2] (Dose 10.00 uM). Also, the “Dose.FC.LYZ.NS (log 2 fold change)” value is 0.012 in the experiment on ISC-enriched organoids [2] (Dose 0.08 uM), −0.062 in the experiment on ISC-enriched organoids [2] (Dose 0.40 uM), 0.069 in the experiment on ISC-enriched organoids [2] (Dose 2.00 uM) and 0.013 with ISC-enriched organoids [2] (Dose 10.00 uM). Also, the “Dose.FC.LYZ.S (log 2 fold change)” value was −0.055 in the experiment on ISC-enriched organoids [3] (Dose 0.08 uM), −0.029 in the experiment on ISC-enriched organoids [3] (Dose 0.40 uM), −0.003 in the experiment with ISC-enriched organoids [3] (Dose 2.00 uM) and −0.006 with ISC-enriched organoids [3] (Dose 10.00 uM).

Consider `Cc1ccc(C(=O)N(CCCN)[C@@H](c2oc3cc(Cl)ccc3c(=O)c2Cc2ccccc2)C(C)C)cc1` [SB743921], for which the “Z.CTG (standard z score)” value with ISC-enriched organoids [1] (Dose 0.08 uM) is listed as −1.159; in the experiment on ISC-enriched organoids [1] (Dose 0.40 uM) it was −1.855; in the experiment with ISC-enriched organoids [1] (Dose 2.00 uM) it was −1.158; with ISC-enriched organoids [1] (Dose 10.00 uM), −1.294. In addition, the “Dose.FC.CTG (log 2 fold change)” value in the experiment on ISC-enriched organoids [1] (Dose 0.08 uM) is listed as −0.485; in the experiment on ISC-enriched organoids [1] (Dose 0.40 uM), −0.777; in the experiment on ISC-enriched organoids [1] (Dose 2.00 uM), −0.485; in the experiment with ISC-enriched organoids [1] (Dose 10.00 uM), −0.542. For the same compound, the “Z.LYZ.NS (standard z score)” value in the experiment with ISC-enriched organoids [2] (Dose 0.08 uM) was −2.017; in the experiment with ISC-enriched organoids [2] (Dose 0.40 uM), −2.148; with ISC-enriched organoids [2] (Dose 2.00 uM) it was −2.297; in the experiment on ISC-enriched organoids [2] (Dose 10.00 uM), −2.068. The “Dose.FC.LYZ.NS (log 2 fold change)” value in the experiment with ISC-enriched organoids [2] (Dose 0.08 uM) was −0.232; in the experiment with ISC-enriched organoids [2] (Dose 0.40 uM), −0.247; with ISC-enriched organoids [2] (Dose 2.00 uM), −0.264; with ISC-enriched organoids [2] (Dose 10.00 uM), −0.238. Also, the “Dose.FC.LYZ.S (log 2 fold change)” value with ISC-enriched organoids [3] (Dose 0.08 uM) was −0.321; in the experiment on ISC-enriched organoids [3] (Dose 0.40 uM) it was −0.329; in the experiment with ISC-enriched organoids [3] (Dose 2.00 uM), −0.340; in the experiment with ISC-enriched organoids [3] (Dose 10.00 uM), −0.350.
